“And” between values parts separate entries of the source, which are not always exact repeats. Equal entries are not always repeated.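 Briefly, cells in 96-well plates were exposed to five compound concentrations for 48 h, and endpoints were estimated by linear interpolation. GI50 = concentration required for 50% inhibition of growth. TGI: total growth inhibition.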
Assays:
Test in all cases: DTP human tumour cell line panel, 48 h; in the data active = GI50 below about 0.43 µM; inactive = the rest
NCI-H522 lung = system: NCI-H522 lung
CCRF-CEM leukemia = system: CCRF-CEM leukemia
MALME-3M melanoma = system: MALME-3M melanoma
K-562 leukemia = system: K-562 leukemia
NCI/ADR-RES ovarian = system: NCI/ADR-RES ovarian
HCC-2998 colon = system: HCC-2998 colon
SK-MEL-28 melanoma = system: SK-MEL-28 melanoma
HT29 colon = system: HT29 colon
MDA-MB-435 = system: MDA-MB-435
MDA-MB-231 breast = system: MDA-MB-231 breast

Cc1ccc(S(=O)(=O)N2CCN(S(=O)(=O)c3ccc(C)cc3)CCN(S(=O)(=O)c3ccc(C)cc3)Cc3cc(Br)c(Br)cc3CN(S(=O)(=O)c3ccc(C)cc3)CC2)cc1
> 100 µM: TGI (NCI-H522 lung) | TGI (CCRF-CEM leukemia) | TGI (MALME-3M melanoma) | TGI (K-562 leukemia) | TGI (NCI/ADR-RES ovarian) | TGI (HCC-2998 colon) | TGI (SK-MEL-28 melanoma) | TGI (HT29 colon) | TGI (MDA-MB-435)
71.1 µM: TGI (MDA-MB-231 breast)

CCCCCCCCCCCCC(O)C(=O)O (configuration not stated)
> 100 µM: TGI (NCI-H522 lung) | TGI (CCRF-CEM leukemia) | TGI (MALME-3M melanoma) | TGI (K-562 leukemia) | TGI (NCI/ADR-RES ovarian) | TGI (HCC-2998 colon) | TGI (HT29 colon) | TGI (MDA-MB-435) | TGI (MDA-MB-231 breast)

COc1cc(C(=O)O)c(-c2cc3c(cc2C=O)OCO3)c(OC)c1OC
> 10 µM: TGI (NCI-H522 lung) | TGI (CCRF-CEM leukemia) | TGI (MALME-3M melanoma) | TGI (K-562 leukemia) | TGI (NCI/ADR-RES ovarian) | TGI (HCC-2998 colon) | TGI (SK-MEL-28 melanoma) | TGI (HT29 colon) | TGI (MDA-MB-435) | TGI (MDA-MB-231 breast)

CC(=O)NCCCCN(CCCNC(C)=O)C(=O)OCc1ccccc1
> 100 µM: TGI (NCI-H522 lung) | TGI (CCRF-CEM leukemia) | TGI (MALME-3M melanoma) | TGI (K-562 leukemia) | TGI (NCI/ADR-RES ovarian) | TGI (HCC-2998 colon) | TGI (SK-MEL-28 melanoma) | TGI (HT29 colon) | TGI (MDA-MB-435) | TGI (MDA-MB-231 breast)

c1n[nH]cc1C12C3C4C5C3C1C5C42 (configuration not stated)
> 100 µM: TGI (NCI-H522 lung) | TGI (CCRF-CEM leukemia) | TGI (MALME-3M melanoma) | TGI (K-562 leukemia) | TGI (NCI/ADR-RES ovarian) | TGI (HCC-2998 colon) | TGI (SK-MEL-28 melanoma) | TGI (HT29 colon) | TGI (MDA-MB-435) | TGI (MDA-MB-231 breast)

C/C(=N\NC(=S)Nc1ccc([N+](=O)[O-])cc1)c1nc2ncccc2[nH]1
3.2 µM: TGI (SK-MEL-28 melanoma)
18.5 µM: TGI (MALME-3M melanoma)
12.4 µM: TGI (CCRF-CEM leukemia)
> 100 µM: TGI (K-562 leukemia) | TGI (MDA-MB-231 breast)
3.25 µM: TGI (NCI-H522 lung)
10.8 µM: TGI (HCC-2998 colon)
5.22 µM: TGI (NCI/ADR-RES ovarian)
4.42 µM: TGI (MDA-MB-435)
2.04 µM: TGI (HT29 colon)

C[C@H]1C[C@H]2[C@@H]3CCC4=CC(=O)C=C[C@]4(C)C3=CC[C@]2(C)[C@@]1(O)C(=O)CO
> 100 µM: TGI (NCI-H522 lung) | TGI (CCRF-CEM leukemia) | TGI (MALME-3M melanoma) | TGI (K-562 leukemia) | TGI (NCI/ADR-RES ovarian) | TGI (HCC-2998 colon) | TGI (SK-MEL-28 melanoma) | TGI (HT29 colon) | TGI (MDA-MB-435) | TGI (MDA-MB-231 breast)

O=c1[nH]c2nc[nH]c2c(=O)n1C1CCCCC1
> 100 µM: TGI (NCI-H522 lung) | TGI (CCRF-CEM leukemia) | TGI (MALME-3M melanoma) | TGI (K-562 leukemia) | TGI (NCI/ADR-RES ovarian) | TGI (HCC-2998 colon) | TGI (SK-MEL-28 melanoma) | TGI (HT29 colon) | TGI (MDA-MB-435) | TGI (MDA-MB-231 breast)

CSc1c(C#N)c(S)n(-c2ccc(Cl)cc2)c(=O)c1C#N
> 100 µM: TGI (NCI-H522 lung) | TGI (CCRF-CEM leukemia) | TGI (MALME-3M melanoma) | TGI (K-562 leukemia) | TGI (NCI/ADR-RES ovarian) | TGI (HCC-2998 colon) | TGI (SK-MEL-28 melanoma) | TGI (HT29 colon) | TGI (MDA-MB-435) | TGI (MDA-MB-231 breast)

O=C(O)Cc1cccc2c(=O)c3cccc([N+](=O)[O-])c3[nH]c12
> 100 µM: TGI (NCI-H522 lung) | TGI (CCRF-CEM leukemia) | TGI (K-562 leukemia) | TGI (NCI/ADR-RES ovarian) | TGI (HCC-2998 colon) | TGI (HT29 colon) | TGI (MDA-MB-435) | TGI (MDA-MB-231 breast)
97.6 µM: TGI (MALME-3M melanoma)

O=C(/C=C(\Nc1ccccc1O)c1ccc(Br)cc1)C(Cl)(Cl)Cl
30.2 µM: TGI (NCI-H522 lung)
20.8 µM: TGI (HT29 colon)
5.88 µM: TGI (HCC-2998 colon)
21.8 µM: TGI (MDA-MB-435)
20.3 µM: TGI (MDA-MB-231 breast)
24.6 µM: TGI (SK-MEL-28 melanoma)
29.2 µM: TGI (MALME-3M melanoma)
25.1 µM: TGI (NCI/ADR-RES ovarian)
36.7 µM: TGI (CCRF-CEM leukemia)
32.5 µM: TGI (K-562 leukemia)

O=C(O)CCCc1ccccc1
338 µM and > 1000 µM: TGI (K-562 leukemia)
350 µM and > 1000 µM: TGI (CCRF-CEM leukemia)
517 µM and > 1000 µM: TGI (HCC-2998 colon)
634 µM and > 1000 µM: TGI (NCI-H522 lung)
121 µM and > 1000 µM: TGI (MALME-3M melanoma)
inactive: GI50 (NCI-H522 lung) > 1000 µM | GI50 (CCRF-CEM leukemia) > 1000 µM | GI50 (K-562 leukemia) > 1000 µM | GI50 (NCI/ADR-RES ovarian) 83.1 µM and 21.2 µM | GI50 (HCC-2998 colon) > 1000 µM | GI50 (SK-MEL-28 melanoma) 325 µM and > 1000 µM | GI50 (HT29 colon) 221 µM and > 1000 µM | GI50 (MDA-MB-435) 292 µM and > 1000 µM | GI50 (MDA-MB-231 breast) 338 µM and > 1000 µM
343 µM and 47.1 µM: TGI (NCI/ADR-RES ovarian)
> 1000 µM: TGI (SK-MEL-28 melanoma) | TGI (HT29 colon) | TGI (MDA-MB-435) | TGI (MDA-MB-231 breast)

c1ccc(C2=C(c3ccccc3)Sc3nnc(CCCCCCCCc4nnc5n4NC(c4ccccc4)=C(c4ccccc4)S5)n3N2)cc1
72.4 µM: TGI (CCRF-CEM leukemia)
> 100 µM: TGI (NCI-H522 lung) | TGI (MALME-3M melanoma) | TGI (K-562 leukemia) | TGI (NCI/ADR-RES ovarian) | TGI (HCC-2998 colon) | TGI (SK-MEL-28 melanoma) | TGI (HT29 colon) | TGI (MDA-MB-435) | TGI (MDA-MB-231 breast)

CN(CCNC(=S)c1cn(C)c2c1ccc1ccccc12)CCNC(=S)c1cn(C)c2c1ccc1ccccc12
> 100 µM: TGI (NCI-H522 lung) | TGI (CCRF-CEM leukemia) | TGI (MALME-3M melanoma) | TGI (K-562 leukemia) | TGI (NCI/ADR-RES ovarian) | TGI (HCC-2998 colon) | TGI (SK-MEL-28 melanoma) | TGI (HT29 colon) | TGI (MDA-MB-435) | TGI (MDA-MB-231 breast)

O=C1c2ccccc2C(=O)c2c1cc1c(c2[N+](=O)[O-])OCO1
6.26 µM: TGI (K-562 leukemia)
26.6 µM: TGI (SK-MEL-28 melanoma)
4 µM: TGI (HCC-2998 colon)
4.68 µM: TGI (NCI-H522 lung)
9.58 µM: TGI (MDA-MB-435)
inactive: GI50 (NCI-H522 lung) 2.01 µM | GI50 (CCRF-CEM leukemia) 0.492 µM | GI50 (MALME-3M melanoma) 2.81 µM | GI50 (K-562 leukemia) 0.621 µM | GI50 (NCI/ADR-RES ovarian) 1.15 µM | GI50 (HCC-2998 colon) 1.5 µM | GI50 (SK-MEL-28 melanoma) 3.52 µM | GI50 (HT29 colon) 4.24 µM | GI50 (MDA-MB-435) 2.91 µM | GI50 (MDA-MB-231 breast) 1.45 µM
8.87 µM: TGI (NCI/ADR-RES ovarian)
> 100 µM: TGI (CCRF-CEM leukemia)
6.79 µM: TGI (MDA-MB-231 breast)
22 µM: TGI (HT29 colon)
8.9 µM: TGI (MALME-3M melanoma)

CC(=O)N(CC(=O)C(=O)NNc1ccoc1)c1ccc(Cl)cc1
> 100 µM: TGI (NCI-H522 lung) | TGI (CCRF-CEM leukemia) | TGI (MALME-3M melanoma) | TGI (K-562 leukemia) | TGI (NCI/ADR-RES ovarian) | TGI (HCC-2998 colon) | TGI (SK-MEL-28 melanoma) | TGI (HT29 colon) | TGI (MDA-MB-435) | TGI (MDA-MB-231 breast)
